A melting point compilation (Tetko et al.; mined from patent text by program, amines drawn as free bases though some values may be those of a salt)

In the case of `Clc1ccc(C2(Cn3ccnc3)OC2c2ccc(Cl)cc2Cl)cc1` (stereo not drawn), the melting point is reported as 102 to 103 °C. For `Cc1cc(C)c2nn3c(SCc4ccccc4)nc(N)nc3c2n1`, the melting point was 263 to 265 °C. In the case of `O=C(NCC1CCCCN1)c1cc(O)ccc1OCC(F)(F)F` (stereo not drawn), the melting point is reported as 134 to 137 °C. `COc1cc(C(=O)c2c[nH]c(-c3ccc(Cl)cc3)n2)cc(OC)c1OC` showed a melting point of 193 to 195 °C. `CC12C=CC(=O)C=C1C(SC#N)C(O)C1C2CCC2(C)C(=O)CCC12` (stereo not drawn) showed a melting point of 206 to 208 °C. `C/C(=N\OC(=O)c1ccccn1)[C@H]1CC[C@H]2[C@@H]3CCC4=CC(=O)CC[C@]4(C)[C@H]3CC[C@]12C` showed a melting point of 172 to 174 °C. `CC(C)(C)C1=CC(=Nc2cc(C(=O)O)ccc2O)C=C(C(C)(C)C)C1=O` showed a melting point of 275 to 276 °C. For `CC(C)(C)OC(=O)N1CCC(C(c2cc(F)ccc2F)S(=O)(=O)c2ccc(Cl)cc2)CC1` (stereo not drawn), the melting point was 193 to 196 °C. Work on `CCCCCc1c(C(C)C)nc(C(C)C)c(CO)c1-c1ccc(F)c(C(O)c2ccc(F)cc2)c1` (stereo not drawn) yielded a melting point of 118 to 120 °C. `Cc1csc(-c2c(C)c(NC(=O)CC(C)(C)C)c(C)c3c2OCC3c2ccc(C(C)C)cc2)n1` (stereo not drawn) gave a melting point of 240 to 241 °C. Work on `CC1(OCc2ccccc2F)COC(c2ccco2)OC1` (stereo not drawn) yielded a melting point of 67.5 to 69 °C. `O=C1C(=O)c2ccccc2C2=C1SCC1(CCN(CC(O)COc3ccc4ccccc4c3)CC1)O2` (stereo not drawn) gave a melting point of 164 to 167 °C. `COc1cccc(C(=O)NCCNC(=O)OC(C)(C)C)n1` gave a melting point of 104 to 105 °C. `c1ccc2c(CN3CCN(Cc4ccc5c(c4)OCO5)CC3)n[nH]c2c1` gave a melting point of 175 to 176 °C. For `N#Cc1ccc2cc(CCCCCc3cc4ccc(C#N)cc4o3)oc2c1`, the melting point was 106 to 107 °C. In the case of `CC(COc1ccc(CC(=O)O)cc1Cl)NCC(O)c1cccc(Cl)c1` (stereo not drawn), the melting point is reported as 188 to 192 °C. For `O=C(C=Cc1ccccc1)OCC#CC#CCOC(=O)C=Cc1ccccc1`, the melting point was 102 to 104 °C. `COC(=O)c1ccc(CNc2cc(C(=O)Nc3ccccc3)ccc2OC)cc1` showed a melting point of 170 to 172 °C. For `O=[N+]([O-])c1cccc2c1OC(CO)C2` (stereo not drawn), the melting point was 63 to 65 °C. `CN1CCCC1=NCCSc1cc2ccccc2[nH]1` gave a melting point of 175 to 177 °C. `O=S(=O)(Nc1ccc2c(OCc3csc(-c4ccccc4)n3)cccc2c1)C(F)(F)F` gave a melting point of 89 to 99 °C. In the case of `CC(=O)Oc1cnc2c(OC(C)=O)cccc2c1`, the melting point is reported as 101 to 102 °C. Work on `COc1ccc(C(=O)Nc2ccc(F)cc2)c2c1oc1ccccc12` yielded a melting point of 246 °C. With `ON=Cc1c(-c2ccccc2F)ccc2c1OCO2` the melting point was 197 to 198 °C. `CC(=O)NNC1=Nc2sc(Cl)cc2C(c2ccccc2Cl)=NC1` gave a melting point of 211 to 213 °C. Work on `COC(=O)c1ccc(CCCNCC(O)c2cccc(Cl)c2)cc1` (stereo not drawn) yielded a melting point of 89 to 92 °C. In the case of `CC(=O)Oc1ccc(N2C(=O)CC(=O)N2c2ccccc2)cc1`, the melting point is reported as 132 to 134 °C. In the case of `C=CCCC(=O)N1C(=O)OC[C@@H]1C(C)C`, the melting point is reported as 119 to 120 °C. For `O=C1NCN(c2ccc(F)c(Cl)c2)C12CCN(C1CCC(c3ccc(F)cc3)(c3ccc(F)cc3)CC1)CC2`, the melting point was 201 to 203 °C. `COC(c1cccc2nc3n(c12)CCCN3c1ccc(Cl)cc1Cl)C1CC1` (stereo not drawn) gave a melting point of 118 to 119 °C. `CCOC(=O)CCCCCN(C)S(=O)(=O)C=C(C(C)=O)c1cccc([N+](=O)[O-])c1` showed a melting point of 60 to 63 °C. For `CC(=O)OC1CCC2C3CCc4cc(O)c(C=O)cc4C3CCC12C` (stereo not drawn), the melting point was 184 °C. In the case of `CCCc1nc(C)c(C=O)n1Cc1ccc(-c2ccccc2C(=O)O)cc1`, the melting point is reported as 243 to 245 °C. Work on `CCOC(=O)CNc1c(C)cc(C(O)(C(F)(F)F)C(F)(F)F)cc1C` yielded a melting point of 91 to 93 °C. With `NNC1=Nc2ccc(Br)cc2C(c2ccccn2)=NC1` the melting point was 218 to 228 °C. `COC(C)(C)[C@H]1CCCN1NC(=O)Nc1cccc2c1C(=O)c1c-2n[nH]c1-c1ccc(N2CCNCC2)cc1` gave a melting point of 218 °C. `CCOC(=O)N1CCC(Nc2nc3ccccc3n2Cc2ccccn2)CC1` showed a melting point of 162 °C. `O=C(O)c1ccc(OCCC2CC(=O)N(c3ccc(Cl)cc3)C2)cc1` (stereo not drawn) gave a melting point of 228 to 229 °C. With `Nc1nnc(Cc2cccc(C(F)(F)F)c2)s1` the melting point was 174 to 176 °C. With `CC(C)(C)ONC(=O)Oc1ccccc1` the melting point was 124 to 126 °C. For `CCOC(=O)C1=C(COCCn2c(C)nnc2-c2ccccc2)NC(C)=C(C(=O)Nc2ccccn2)C1c1ccccc1Cl` (stereo not drawn), the melting point was 167 to 169 °C. Work on `Cn1cnnc1SCCCCCN1CCN(c2cccc(C(F)(F)F)c2)CC1` yielded a melting point of 70 to 76 °C. Molecule `CCOC(=O)C1=C(N)NC2=C(C(=O)CCC2)C1c1nccc2ccccc12` (stereo not drawn) has a melting point of 272 °C. For `Cc1nnc2n1-c1sc(C#CCn3c(=O)n(C)c(=O)c4ccccc43)cc1C(c1ccccc1Cl)=NC2`, the melting point was 167 to 170 °C. `CC(=O)N1CCSC1Cc1cnn(-c2ccccc2)c1-c1ccc(Cl)cc1` (stereo not drawn) gave a melting point of 121 to 122 °C. With `Cc1ncc(CN2C(=O)c3ccccc3C2=O)n1-c1ccc(Cl)cc1C(=O)c1ccccc1F` the melting point was 192 to 196 °C. Work on `Nc1ccc(S(=O)(=O)Nc2cccc3[nH]ccc23)cc1` yielded a melting point of 215 °C. `Cc1ccc(SC(Cl)=C(C(Cl)=C(Cl)Cl)[N+](=O)[O-])cc1` gave a melting point of 110 to 111 °C. In the case of `O=C(O)C[C@H]1CC[C@H](Cn2nc(-c3cccs3)c(Cc3cc4c(cc3Cl)OCO4)c2C(=O)O)CC1`, the melting point is reported as 240 °C. With `O=C(Nc1cccc(CC(F)(F)F)c1)Nc1ccc2c(c1)COC2=O` the melting point was 279 to 282 °C. Work on `Cc1ccc(-c2nnc(N3CCC(OC(=O)Oc4ccccc4)CC3)nc2-c2ccc(C)cc2)cc1` yielded a melting point of 142 to 143 °C. `Cc1noc(-c2ncn3c2[C@@H]2CCN2C(=O)c2c-3cccc2C(F)(F)F)n1` showed a melting point of 255 to 256 °C. `CCOC(=S)CC/C(C)=C/Cc1c(OC)c(C)c2c(c1OC(N)=O)C(=O)OC2` showed a melting point of 145 to 147 °C. Work on `COc1ccc(C(N)=O)c(OC)c1-c1ccc(C[C@H](NC(=O)c2c(Cl)cccc2Cl)C(=O)O)cc1` yielded a melting point of 227 to 228 °C. Work on `Cc1cc(-c2nc3cc(Cl)cc(Cl)c3c(=O)[nH]2)cc(C)c1OCCN1CCCC1` yielded a melting point of 209 to 210 °C. In the case of `COc1cc(Nc2c(C#N)cnc3sc(-c4ccc(C=O)cc4)cc23)c(Cl)cc1Cl`, the melting point is reported as greater than 240 °C. For `CCOC(=O)[C@H](Cc1cccc(OS(=O)(=O)C(F)(F)F)c1)NC(=O)C(F)(F)F`, the melting point was 38 to 39 °C. With `CN1CC(c2nccc(CCc3ccccc3)n2)=C(O)C1=O` the melting point was 118 to 119 °C. With `CCC(=C(N)N)[N+](=O)[O-]` the melting point was 114 to 116 °C. With `Cc1cc(OCc2ccccc2)cc(C)c1NC(=O)CN1CCN2C(C1)C(=O)NC2(C)C` (stereo not drawn) the melting point was 224 °C. Work on `c1ccc2cc(OCCc3c[nH]cn3)ccc2c1` yielded a melting point of 157 to 158 °C. `CC(=O)Nc1ccc(OCc2nc3ccc(F)cc3s2)cc1` gave a melting point of 204 to 205 °C. For `CCCCCCCCCCCCC#CCO`, the melting point was 36 to 37 °C. `Cc1ccc2c(c1)C(c1ccc(C(C)C)cc1)C(C)(C)O2` (stereo not drawn) showed a melting point of 65 to 66 °C. In the case of `CC(=O)Nc1cccc(/C=C/C(=O)N2CC(CCl)c3c2cc(NC(=O)OCC2c4ccccc4-c4ccccc42)c2ccccc32)c1` (stereo not drawn), the melting point is reported as 208 to 209 °C. Molecule `CS(=O)(=O)c1ccc(-c2cnn(-c3cccc(Cl)c3)c(=O)c2Oc2ccccc2)cc1` has a melting point of 205 to 207 °C. For `CC(Oc1cc2sc(NC(=O)NCCN3CCOCC3)nc2cc1F)c1c(Cl)cccc1Cl` (stereo not drawn), the melting point was 200 to 205 °C. `CCCCCC(CC(=O)Nc1cc(CCCNC(N)=O)ccc1C(C)(C)C)c1ccc(OC)cc1OC` (stereo not drawn) showed a melting point of 125 °C.
